Target: T1, human renin (Homo sapiens, UniProt P00797)
T1 sequence (P00797 67-406): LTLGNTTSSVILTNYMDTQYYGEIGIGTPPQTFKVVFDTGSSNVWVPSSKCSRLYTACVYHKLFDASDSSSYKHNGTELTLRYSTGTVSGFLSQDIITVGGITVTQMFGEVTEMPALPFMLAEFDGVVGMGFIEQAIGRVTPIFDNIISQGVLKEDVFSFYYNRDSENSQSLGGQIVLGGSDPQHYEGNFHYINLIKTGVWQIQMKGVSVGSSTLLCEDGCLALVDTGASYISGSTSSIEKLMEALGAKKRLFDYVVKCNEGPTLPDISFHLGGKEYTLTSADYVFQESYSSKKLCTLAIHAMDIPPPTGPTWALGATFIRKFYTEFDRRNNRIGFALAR
Experiment: Determination of renin IC50 by tGFP FRET assay
Type: biochemical
Conditions: Human recombinant renin, tandem GFP substrate 650 nM, 60 min incubation with compound, pH 7.4, 11-point curve
Text: Determination of Renin IC50 by tGFP FRET Assay
The tGFP FRET (fluorescence resonance energy transfer) assay utilizes a tandem GFP substrate (60 kDa, Discovery Technologies) containing nine amino acid recognition sequences for human renin flanked by two GFP proteins. The assay is used to determine the ability of a compound to act as an inhibitor of renin enzymatic activity by determination of that concentration of test compound that inhibits by 50% (IC50) the ability of renin to cleave the tandem GFP substrate. The IC50 values are determined over an 11-point curve at concentrations of 100 μM to 1 pM. Each compound concentration used to construct the curve was dependent on renin inhibitor potency. For example, subnanomolar IC50 values were determined over an 11-point curve at concentrations of 10 μM to 1 pM. All other IC50 values were determined over an 11-point curve at concentrations of 100 μM to 0.0065 μM. The concentrations were achieved by diluting a 9.1 nM stock of Human recombinant renin in the appropriate amount of buffer containing 50 mM HEPES, 1 mM EDTA, 1% PEG (8000 MW), 1 mM DTT, 0.1% BSA, pH 7.4 to achieve the final concentration of 50.4 μIU. The tGFP substrate stock solution of 43 μM was diluted with the appropriate amount of the above buffer to obtain the final concentration of 650 nM. In addition, 1 μl of the compound is diluted in dimethylsulfoxide (DMSO) to represent an […] log scale (5% final). The SR renin and compound are added to a 384 capacity plate by an automated robot (BIOMEK). The plate is incubated for 60 minutes; upon completion the tGFP substrate is added.
The IC50 is determined by monitoring the increase in […] at 432/432 nm excitation, 530/475 nm emission with a cutoff at 515/455 nm, in a fluorometric plate reader.

Compared with `COc1ccccc1COCCCOc1ccc(N2C(=O)CNC[C@H]2COc2ccc3ccccc3c2)cc1` [Example 1, (6S)-1-{4-[3-(2-methoxybenzyloxy)-propoxy]-phenyl}-6-(naphthalen-2-yloxymethyl)-piperazin-2-one], `COc1ccccc1COCCCOc1ccc(N2C(=O)CNC[C@@H]2COCc2ccccc2F)cc1` [Example 3, (6R)-6-(2-fluorobenzyloxymethyl)-1-{4-[3-(2-methoxybenzyloxy)-propoxy]-phenyl}-piperazin-2-one] is 3.4-fold higher in IC50: 66 nM for the first, 225 nM for the second. The first is the more potent here.

Compared with `COc1ccccc1COCCCOc1ccc(N2C(=O)CNC[C@@H]2COCc2ccc(Cl)c(Cl)c2)cc1` [Example 2, (6R)-6-(3,4-dichlorobenzyloxymethyl)-1-{4-[3-(2-methoxybenzyloxy)-propoxy]-phenyl}-piperazin-2-one], `COc1ccccc1COCCCOc1ccc(N2C(=O)CNC[C@@H]2COCc2c(Cl)cccc2Cl)cc1` [Example 17, (6R)-6-(2,6-dichlorobenzyloxymethyl)-1-{4-[3-(2-methoxybenzyloxy)-propoxy]-phenyl}-piperazin-2-one] is higher in IC50: 181 nM for the first, over 1000 nM for the second.

First: COc1ccccc1COCCCOc1ccc(N2C(=O)CNC[C@@H]2COCc2ccc(F)c(F)c2)cc1 [Example 4, (6R)-6-(3,4-difluorobenzyloxymethyl)-1-{4-[3-(2-methoxybenzyloxy)-propoxy]-phenyl}-piperazin-2-one]
Second: COc1ccccc1COCCCOc1ccc(N2C(=O)CNC[C@@H]2COCc2ccc(F)c(C)c2)cc1 [Example 27, (6R)-6-(4-fluoro-3-methylbenzyloxymethyl)-1-{4-[3-(2-methoxybenzyloxy)-propoxy]-phenyl}-piperazin-2-one]
The IC50 of the first is lower: 246 nM for the first, over 1000 nM for the second.

`COc1ccccc1COCCCOc1ccc(N2C(=O)CNC[C@@H]2COCc2ccc(Cl)cc2)cc1` [Example 5, (6R)-6-(4-chlorobenzyloxymethyl)-1-{4-[3-(2-methoxybenzyloxy)-propoxy]-phenyl}-piperazin-2-one] and `COc1ccccc1COCCCOc1ccc(N2C(=O)CNC[C@@H]2COCc2ccc(C)cc2)cc1` [Example 7, (6R)-1-{4-[3-(2-methoxybenzyloxy)-propoxy]-phenyl}-6-(4-methylbenzyloxymethyl)-piperazin-2-one] are within 1.5-fold of each other in IC50: 295 nM for the first, 337 nM for the second.

`COc1ccccc1COCCCOc1ccc(N2C(=O)CNC[C@@H]2COCc2cccc(Cl)c2)cc1` [Example 6, (6R)-6-(3-chlorobenzyloxymethyl)-1-{4-[3-(2-methoxybenzyloxy)-propoxy]-phenyl}-piperazin-2-one] and `COc1ccccc1COCCCOc1ccc(N2C(=O)CNC[C@@H]2COCc2cccc(C)c2)cc1` [Example 15, (6R)-1-{4-[3-(2-methoxybenzyloxy)-propoxy]-phenyl}-6-(3-methylbenzyloxymethyl)-piperazin-2-one] are within 1.5-fold of each other in IC50: 325 nM for the first, 372 nM for the second.

First: COc1ccccc1COCCCOc1ccc(N2C(=O)CNC[C@@H]2COCc2ccc(F)cc2)cc1 [Example 8, (6R)-6-(4-fluorobenzyloxymethyl)-1-{4-[3-(2-methoxybenzyloxy)-propoxy]-phenyl}-piperazin-2-one]
Second: COc1ccc(COC[C@H]2CNCC(=O)N2c2ccc(OCCCOCc3ccccc3OC)cc2)cc1 [Example 12, (6R)-6-(4-methoxybenzyloxymethyl)-1-{4-[3-(2-methoxybenzyloxy)-propoxy]-phenyl}-piperazin-2-one]
The IC50 of the first is 8.5-fold lower: 454 nM for the first, 3860 nM for the second.

Going from `COc1cccc(COC[C@H]2CNCC(=O)N2c2ccc(OCCCOCc3ccccc3OC)cc2)c1` [Example 9, (6R)-6-(3-methoxybenzyloxymethyl)-1-{4-[3-(2-methoxybenzyloxy)-propoxy]-phenyl}-piperazin-2-one] to `COc1ccccc1COCCCOc1ccc(N2C(=O)CNC[C@@H]2COCc2cccc(F)c2)cc1` [Example 18, (6R)-6-(3-fluorobenzyloxymethyl)-1-{4-[3-(2-methoxybenzyloxy)-propoxy]-phenyl}-piperazin-2-one], the IC50 rises from 612 nM to over 1000 nM. The first is the more potent here.

Compared with `COc1ccccc1COCCCOc1ccc(N2C(=O)CNC[C@@H]2COCc2ccccc2OC)cc1` [Example 10, (6R)-6-(2-methoxybenzyloxymethyl)-1-{4-[3-(2-methoxybenzyloxy)-propoxy]-phenyl}-piperazin-2-one], `COc1ccccc1COCCCOc1ccc(N2C(=O)CNC[C@@H]2COCc2ccccc2C)cc1` [Example 21, (6R)-1-{4-[3-(2-methoxybenzyloxy)-propoxy]-phenyl}-6-(2-methylbenzyloxymethyl)-piperazin-2-one] is higher in IC50: 880 nM for the first, over 1000 nM for the second.

`COc1ccccc1COCCCOc1ccc(N2C(=O)CNC[C@@H]2COCc2cc(F)cc(F)c2)cc1` [Example 11, (6R)-6-(3,5-difluorobenzyloxymethyl)-1-{4-[3-(2-methoxybenzyloxy)-propoxy]-phenyl}-piperazin-2-one] and `COc1ccccc1COCCCOc1ccc(N2C(=O)CNC[C@@H]2COCc2cc(Cl)cc(Cl)c2)cc1` [Example 20, (6R)-6-(3,5-dichlorobenzyloxymethyl)-1-{4-[3-(2-methoxybenzyloxy)-propoxy]-phenyl}-piperazin-2-one] cannot be ordered by IC50: 1570 nM for the first, over 1000 nM for the second.

First: COc1ccccc1COCCCOc1ccc(N2C(=O)CNC[C@@H]2COCc2ccc(C(F)(F)F)cc2)cc1 [Example 13, (6R)-1-{4-[3-(2-methoxybenzyloxy)-propoxy]-phenyl}-6-(4-trifluoromethylbenzyloxymethyl)-piperazin-2-one]
Second: COc1ccccc1COCCCOc1ccc(N2C(=O)CNC[C@@H]2COCc2ccc(Cl)c(C(F)(F)F)c2)cc1 [Example 24, (6R)-6-(4-chloro-3-trifluoromethylbenzyloxymethyl)-1-{4-[3-(2-methoxybenzyloxy)-propoxy]-phenyl}-piperazin-2-one]
The IC50 of the first is 1.6-fold lower: 68 nM for the first, 107 nM for the second.

Going from `COc1ccccc1COCCCOc1ccc(N2C(=O)CNC[C@@H]2COCc2ccccc2Cl)cc1` [Example 14, (6R)-6-(2-chlorobenzyloxymethyl)-1-{4-[3-(2-methoxybenzyloxy)-propoxy]-phenyl}-piperazin-2-one] to `COc1ccccc1COCCCOc1ccc(N2C(=O)CNC[C@@H]2COCc2ccc(F)cc2Cl)cc1` [Example 22, (6R)-6-(2-chloro-4-fluorobenzyloxymethyl)-1-{4-[3-(2-methoxybenzyloxy)-propoxy]-phenyl}-piperazin-2-one], the IC50 rises from 223 nM to over 1000 nM.

Going from `COc1ccccc1COCCCOc1ccc(N2C(=O)CNC[C@@H]2COCc2c(F)cccc2F)cc1` [Example 16, (6R)-6-(2,6-difluorobenzyloxymethyl)-1-{4-[3-(2-methoxybenzyloxy)-propoxy]-phenyl}-piperazin-2-one] to `COc1ccccc1COCCCOc1ccc(N2C(=O)CNC[C@@H]2COCc2ccc(F)c(C(F)(F)F)c2)cc1` [Example 26, (6R)-6-(4-fluoro-3-trifluoromethylbenzyloxymethyl)-1-{4-[3-(2-methoxybenzyloxy)-propoxy]-phenyl}-piperazin-2-one], the IC50 falls from over 1000 nM to 132 nM. The second is the more potent here.

`COc1ccccc1COCCCOc1ccc(N2C(=O)CNC[C@@H]2COCc2ccc(F)cc2C(F)(F)F)cc1` [Example 19, (6R)-6-(4-fluoro-2-trifluoromethylbenzyloxymethyl)-1-{4-[3-(2-methoxybenzyloxy)-propoxy]-phenyl}-piperazin-2-one] and `COc1ccccc1COCCCOc1ccc(N2C(=O)CNC[C@@H]2COCc2ccncc2)cc1` [Example 25, (6R)-1-{4-[3-(2-methoxybenzyloxy)-propoxy]-phenyl}-6-(pyridin-4-ylmethoxymethyl)-piperazin-2-one] cannot be ordered by IC50: over 1000 nM for the first, over 1000 nM for the second.

Compared with `COc1ccccc1COCCCOc1ccc(N2C(=O)CNC[C@@H]2COCc2cccnc2)cc1` [Example 23, (6R)-1-{4-[3-(2-methoxybenzyloxy)-propoxy]-phenyl}-6-(pyridin-3-ylmethoxymethyl)-piperazin-2-one], `COc1ccccc1COCCCOc1ccc(N2C(=O)CNC[C@@H]2COCc2ccccn2)cc1` [Example 29, (6R)-1-{4-[3-(2-methoxybenzyloxy)-propoxy]-phenyl}-6-(pyridin-2-ylmethoxymethyl)-piperazin-2-one] is higher in IC50: 117 nM for the first, over 1000 nM for the second.

`COc1ccccc1COCCCOc1ccc(N2C(=O)CNC[C@@H]2COCc2ccc(C#N)cc2)cc1` [Example 28, (6R)-4-(1-{4-[3-(2-methoxybenzyloxy)-propoxy]-phenyl}-6-oxopiperazin-2-ylmethoxymethyl)-benzonitrile] was tested, and the IC50 was over 1000 nM.

From patent US20040214832A1, “Piperazine derivative renin inhibitors” (priority 2003, published 2004)
